# What was measured:
# [1] = target: Nicotinic Acetylcholine α3β4 (Homo sapiens, UniProt P30926+P32297); assay: Lead Profiling Screen, Eurofins Panlabs; type: binding; conditions: Nicotinic Acetylcholine α3β4, hum, read-out: % inh at 10 μM
# [2] = Binding in plasma from rat (equilibrium dialysis); type: in vitro ADME; conditions: rat, plasma, fraction unbound; equilibrium dialysis; read-out: Rat fu,plasma
# Procedure: Binding in plasma from rat and human.
# Determination of compounds’ fraction unbound (f u) in plasma from rat and human was conducted in vitro via equilibrium dialysis using HTDialysis membrane plates. Dialysis membranes (four paired strips per HTD assay) were hydrated as described by the manufacturer and inserted into the HTD plate, which was assembled and prepared for sample addition by the dispensing of blank buffer (DPBS, 100 µL/well) into the ‘top half’ of each membrane-split well. Each compound was diluted into plasma from each species (5 µM final concentration), which was aliquoted in triplicate to the ‘bottom half’ of the prepared HTD plate wells. The HTD plate was sealed and incubated for 6 hours at 37 °C. Following incubation, each well (both top and bottom halves) were transferred (20 µL) to the corresponding wells of a 96-shallow-well (V-bottom) plate. The daughter plates were then matrix-matched (buffer side wells received equal volume of plasma, and plasma side wells received equal volume of buffer), and extraction solution (120 µL; acetonitrile containing 50 nM carbamazepine as IS) was added to all wells of both daughter plates to precipitate protein and extract test article. The plates were then sealed and centrifuged (3500 rcf) for 10 minutes at ambient temperature. Supernatant (60 µL) from each well of the daughter plates was then transferred to the corresponding wells of new daughter plates (96-shallow-well, V bottom) containing water (Milli-Q, 60 µL/well), and the plates were sealed in preparation for LC-MS/MS analysis (see below). fu was calculated as (analyte to IS MS peak area ratio from Trans-buffer side) / (analyte to IS MS peak area ratio from Cis-plasma side). Mean values for each species were calculated from 3 replicates. […]
# Mean values for each species were calculated from 3 replicates. […]
# After 5 minutes (pre-incubation), reactions were initiated by addition of nicotinamide adenine dinucleotide phosphate (NADPH, 1 mM final concentration). At selected time intervals (0, 3, 7, 15, 25, and 45 minutes) post-addition of NADPH, aliquots (50 µL) were taken and placed into a 96-shallow-well plate containing ice cold acetonitrile (150 µL) with carbamazepine (IS, 50 nM). The plates were then centrifuged (3000 rcf at 4 °C) for 10 minutes. The supernatants were transferred to a new 96-shallow-well daughter plate and diluted (1:1 v/v) with water (Milli-Q filtered). The plates were then sealed in preparation for LC-MS/MS analysis (see below).
# [3] = target: Leukotriene, Cysteinyl CysLT1 (Homo sapiens, UniProt Q9Y271); assay: Lead Profiling Screen, Eurofins Panlabs; type: binding; conditions: Cysteinyl CysLT1, hum, read-out: % inh at 10 μM
# Chain of Leukotriene, Cysteinyl CysLT1 (Q9Y271 whole entry): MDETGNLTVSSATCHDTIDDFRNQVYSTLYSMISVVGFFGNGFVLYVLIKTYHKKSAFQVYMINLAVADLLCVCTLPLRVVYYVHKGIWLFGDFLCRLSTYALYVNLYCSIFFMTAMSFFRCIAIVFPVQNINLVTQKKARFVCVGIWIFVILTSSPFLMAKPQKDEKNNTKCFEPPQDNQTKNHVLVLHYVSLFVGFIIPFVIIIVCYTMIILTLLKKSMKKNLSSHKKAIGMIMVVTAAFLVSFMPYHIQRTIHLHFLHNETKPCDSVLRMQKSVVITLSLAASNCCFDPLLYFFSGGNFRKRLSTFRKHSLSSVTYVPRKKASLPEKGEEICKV
# [4] = target: Melatonin MT1 (Homo sapiens, UniProt P48039); assay: Lead Profiling Screen, Eurofins Panlabs; type: binding; conditions: Melatonin MT1, hum, read-out: % inh at 10 μM
# Chain of Melatonin MT1 (P48039 whole entry): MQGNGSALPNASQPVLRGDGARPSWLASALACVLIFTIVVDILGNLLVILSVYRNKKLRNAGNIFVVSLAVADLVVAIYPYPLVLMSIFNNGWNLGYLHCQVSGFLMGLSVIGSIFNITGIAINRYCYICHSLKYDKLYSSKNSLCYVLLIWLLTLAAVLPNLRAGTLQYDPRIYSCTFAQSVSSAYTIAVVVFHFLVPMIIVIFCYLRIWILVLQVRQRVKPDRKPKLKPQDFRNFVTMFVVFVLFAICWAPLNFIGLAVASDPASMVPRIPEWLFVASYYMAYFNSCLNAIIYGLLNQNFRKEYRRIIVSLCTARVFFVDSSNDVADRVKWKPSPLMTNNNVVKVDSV
# [5] = tested on: Rolipram; assay: Lead Profiling Screen, Eurofins Panlabs; type: binding; conditions: rat
# [6] = target: Interleukin IL-1 R1 (Homo sapiens, UniProt P14778); assay: Lead Profiling Screen, Eurofins Panlabs; type: binding; conditions: Interleukin IL-1 R1, hum, read-out: % inh at 10 μM
# Chain of Interleukin IL-1 R1 (P14778 18-569): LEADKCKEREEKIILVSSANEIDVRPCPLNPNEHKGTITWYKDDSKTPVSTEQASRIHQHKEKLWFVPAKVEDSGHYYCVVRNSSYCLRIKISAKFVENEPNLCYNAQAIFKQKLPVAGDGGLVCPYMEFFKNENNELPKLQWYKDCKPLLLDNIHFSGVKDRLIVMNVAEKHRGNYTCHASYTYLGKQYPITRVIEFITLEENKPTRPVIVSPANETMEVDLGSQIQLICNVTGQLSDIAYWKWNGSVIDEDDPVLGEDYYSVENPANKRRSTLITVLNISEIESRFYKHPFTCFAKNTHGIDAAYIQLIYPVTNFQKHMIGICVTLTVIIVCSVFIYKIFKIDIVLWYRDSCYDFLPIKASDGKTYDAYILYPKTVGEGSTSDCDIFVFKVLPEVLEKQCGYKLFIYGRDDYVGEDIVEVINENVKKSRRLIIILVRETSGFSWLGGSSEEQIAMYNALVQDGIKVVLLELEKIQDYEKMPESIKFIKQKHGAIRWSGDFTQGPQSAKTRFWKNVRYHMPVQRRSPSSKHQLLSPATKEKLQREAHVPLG
# Chain of Nicotinic Acetylcholine α3β4 (P32297 32-505): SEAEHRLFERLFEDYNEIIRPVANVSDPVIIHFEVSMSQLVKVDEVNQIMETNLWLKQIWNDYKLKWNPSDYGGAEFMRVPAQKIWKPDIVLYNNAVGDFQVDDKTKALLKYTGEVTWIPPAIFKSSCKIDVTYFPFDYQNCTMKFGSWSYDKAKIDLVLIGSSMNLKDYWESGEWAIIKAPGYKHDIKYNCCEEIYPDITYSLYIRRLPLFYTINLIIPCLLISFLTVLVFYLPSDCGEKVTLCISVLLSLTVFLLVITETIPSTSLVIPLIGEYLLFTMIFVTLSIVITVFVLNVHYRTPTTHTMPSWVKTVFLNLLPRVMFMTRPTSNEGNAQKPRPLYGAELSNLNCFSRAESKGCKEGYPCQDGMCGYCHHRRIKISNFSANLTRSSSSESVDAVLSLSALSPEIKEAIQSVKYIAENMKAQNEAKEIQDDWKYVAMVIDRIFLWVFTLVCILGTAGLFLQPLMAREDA
# Chain of Nicotinic Acetylcholine α3β4 (P30926 22-498): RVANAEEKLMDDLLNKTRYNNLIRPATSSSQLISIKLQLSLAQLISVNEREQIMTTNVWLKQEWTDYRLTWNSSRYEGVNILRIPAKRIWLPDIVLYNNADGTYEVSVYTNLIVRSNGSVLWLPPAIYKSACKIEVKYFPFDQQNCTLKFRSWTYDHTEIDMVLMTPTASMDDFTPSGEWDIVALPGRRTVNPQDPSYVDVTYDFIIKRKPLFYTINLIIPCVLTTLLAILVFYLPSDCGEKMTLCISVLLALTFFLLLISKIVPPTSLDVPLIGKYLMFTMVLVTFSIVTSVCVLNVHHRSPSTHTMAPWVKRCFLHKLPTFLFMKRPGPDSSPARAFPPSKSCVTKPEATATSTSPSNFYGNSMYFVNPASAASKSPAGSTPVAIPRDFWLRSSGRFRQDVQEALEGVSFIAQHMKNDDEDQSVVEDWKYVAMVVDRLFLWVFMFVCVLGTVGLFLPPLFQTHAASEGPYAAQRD
smiles,measurement,setting,value
Cc1cc(Oc2cnn(C)c2)cc(C(=O)Nc2ccc(F)cn2)n1 [22iA],inhibition at 10 µM,[1],6%
same,"fraction unbound at 6 h, 5 µM",[2],0.059
same,inhibition at 10 µM,[3],7%
same,inhibition at 10 µM,[4],15%
same,% inh at 10 μM,[5],-2%
same,inhibition at 10 µM,[6],-7%
